Tests used:
Rtkn-GFP = test: ToxTracker genotoxicity assay, Rtkn-GFP reporter induction; conditions: for Genotoxicity test, With S9 rat liver extract, Rtkn, 10 / Genotoxicity test, Without S9 rat liver extract, Rtkn, 10: GFP induction vs vehicle at 10% cytotoxicity; for Genotoxicity test, With S9 rat liver extract, Rtkn, 10 / Genotoxicity test, With S9 rat liver extract, Rtkn, 25 / Genotoxicity test, With S9 rat liver extract, Rtkn, 50: 3 h exposure with S9, 24 h recovery; for Genotoxicity test, Without S9 rat liver extract, Rtkn, 10 / Genotoxicity test, Without S9 rat liver extract, Rtkn, 25 / Genotoxicity test, Without S9 rat liver extract, Rtkn, 50: 24 h exposure, no S9; for Genotoxicity test, With S9 rat liver extract, Rtkn, 25 / Genotoxicity test, Without S9 rat liver extract, Rtkn, 25: GFP induction vs vehicle at 25% cytotoxicity; for Genotoxicity test, With S9 rat liver extract, Rtkn, 50 / Genotoxicity test, Without S9 rat liver extract, Rtkn, 50: GFP induction vs vehicle at 50% cytotoxicity
Bscl2-GFP = test: ToxTracker genotoxicity assay, Bscl2-GFP reporter induction; conditions: for Genotoxicity test, With S9 rat liver extract, Bscl 2, 10 / Genotoxicity test, Without S9 rat liver extract, Bscl 2, 10: GFP induction vs vehicle at 10% cytotoxicity; for Genotoxicity test, With S9 rat liver extract, Bscl 2, 10 / Genotoxicity test, With S9 rat liver extract, Bscl 2, 25 / Genotoxicity test, With S9 rat liver extract, Bscl 2, 50: 3 h exposure with S9, 24 h recovery; for Genotoxicity test, Without S9 rat liver extract, Bscl 2, 10 / Genotoxicity test, Without S9 rat liver extract, Bscl 2, 25 / Genotoxicity test, Without S9 rat liver extract, Bscl 2, 50: 24 h exposure, no S9; for Genotoxicity test, With S9 rat liver extract, Bscl 2, 25 / Genotoxicity test, Without S9 rat liver extract, Bscl 2, 25: GFP induction vs vehicle at 25% cytotoxicity; for Genotoxicity test, With S9 rat liver extract, Bscl 2, 50 / Genotoxicity test, Without S9 rat liver extract, Bscl 2, 50: GFP induction vs vehicle at 50% cytotoxicity

| SMILES | Genotoxicity test, With S9 rat liver extract, Rtkn, 10 (Rtkn-GFP) [fold] | Genotoxicity test, Without S9 rat liver extract, Rtkn, 10 (Rtkn-GFP) [fold] | Genotoxicity test, With S9 rat liver extract, Rtkn, 25 (Rtkn-GFP) [fold] | Genotoxicity test, Without S9 rat liver extract, Rtkn, 25 (Rtkn-GFP) [fold] | Genotoxicity test, With S9 rat liver extract, Rtkn, 50 (Rtkn-GFP) [fold] | Genotoxicity test, Without S9 rat liver extract, Rtkn, 50 (Rtkn-GFP) [fold] | Genotoxicity test, With S9 rat liver extract, Bscl 2, 10 (Bscl2-GFP) [fold] | Genotoxicity test, Without S9 rat liver extract, Bscl 2, 10 (Bscl2-GFP) [fold] | Genotoxicity test, With S9 rat liver extract, Bscl 2, 25 (Bscl2-GFP) [fold] | Genotoxicity test, Without S9 rat liver extract, Bscl 2, 25 (Bscl2-GFP) [fold] | Genotoxicity test, With S9 rat liver extract, Bscl 2, 50 (Bscl2-GFP) [fold] | Genotoxicity test, Without S9 rat liver extract, Bscl 2, 50 (Bscl2-GFP) [fold] |
| --- | --- | --- | --- | --- | --- | --- | --- | --- | --- | --- | --- | --- |
| C=CCOCC(CN1CC1C)OC(=O)NCCCCCCn1c(=O)n(CCCCCCNC(=O)OC(COCC=C)CN2CC2C)c(=O)n(CCCCCCNC(=O)OC(COCC=C)CN2CC2C)c1=O (stereo not shown) [Ex. 9] | 1.1 | 1.0 | 1.1 | 1.1 | 1.2 | 1.1 | 1.2 | 1.1 | 1.2 | 1.2 | 1.2 | 1.2 |
| CCCCOCC(CN1CC1C)OC(=O)NC(C)(C)c1cccc(C(C)(C)NC(=O)OC(COCCCC)CN2CC2C)c1 (stereo not shown) [Ex. 11] | 1.3 | 1.1 | 1.3 | 1.3 | 1.1 | 1.3 | 1.2 | 1.1 | 1.3 | 1.3 | 1.3 | 1.3 |
| CCCCOCC(CN1CC1C)OC(=O)NC1CCC(CC2CCC(NC(=O)OC(COCCCC)CN3CC3C)CC2)CC1 (stereo not shown) [Ex. 12] | 1.0 | 1.0 | 1.0 | 1.0 | 1.1 | 1.0 | 1.1 | 1.0 | 1.0 | 1.0 | 1.0 | 1.0 |
| CCCCOCC(CN1CC1C)OC(=O)NCCCCCCN1C(=O)N(CCCCCCNC(=O)OC(COCCCC)CN2CC2C)C1=O (stereo not shown) [Ex. 13] | 1.4 | 1.1 | 1.6 | 1.2 |  |  | 1.2 | 1.1 | 1.2 | 1.3 |  |  |
| CCCCOCC(CN1CC1C)OC(=O)NCCCCCCn1c(=O)n(CCCCCCNC(=O)OC(COCCCC)CN2CC2C)c(=O)n(CCCCCCNC(=O)OC(COCCCC)CN2CC2C)c1=O (stereo not shown) [Ex. 14] | 0.9 | 0.8 | 0.8 | 0.8 | 0.6 | 0.6 | 1.0 | 1.1 | 1.0 | 1.1 |  | 1.1 |
| CCCCOCC(CN1CC1C)OC(=O)NCCCCCC/N=c1\oc(=O)n(CCCCCCNC(=O)OC(COCCCC)CN2CC2C)c(=O)n1CCCCCCNC(=O)OC(COCCCC)CN1CC1C (stereo not shown) [Ex. 15] | 1.1 | 1.1 |  | 1.0 |  | 0.9 | 1.0 | 1.1 |  | 1.1 |  | 0.9 |
| CC1CN1C1CCCCC1OC(=O)NCCCCCCn1c(=O)n(CCCCCCNC(=O)OC2CCCCC2N2CC2C)c(=O)n(CCCCCCNC(=O)OC2CCCCC2N2CC2C)c1=O (stereo not shown) [Ex. 19] | 1.2 | 1.2 | 1.3 | 1.3 | 1.3 |  | 1.1 | 1.1 | 1.2 | 1.3 | 1.2 |  |
| CCCCC(CC)COCC(CN1CC1C)OC(=O)NCCCCCCn1c(=O)n(CCCCCCNC(=O)OC(COCC(CC)CCCC)CN2CC2C)c(=O)n(CCCCCCNC(=O)OC(COCC(CC)CCCC)CN2CC2C)c1=O (stereo not shown) [Ex. 20] | 1.0 | 1.1 | 1.1 | 1.3 | 1.1 | 1.2 | 0.9 | 1.0 | 0.8 | 1.0 | 0.7 | 0.7 |
| Cc1ccccc1OCC(CN1CC1C)OC(=O)NCCCCCCn1c(=O)n(CCCCCCNC(=O)OC(COc2ccccc2C)CN2CC2C)c(=O)n(CCCCCCNC(=O)OC(COc2ccccc2C)CN2CC2C)c1=O (stereo not shown) [Ex. 21] | 1.2 | 1.2 | 1.4 | 1.3 | 1.5 | 1.5 | 1.0 | 1.1 | 1.3 | 1.2 | 1.4 | 1.6 |
| CCCCCCCCCC(=O)OCC(CN1CC1C)OC(=O)NC(C)(C)c1cccc(C(C)(C)NC(=O)OC(COC(=O)CCCCCCCCC)CN2CC2C)c1 (stereo not shown) [Ex. 22] | 1.1 | 1.0 | 1.1 | 1.0 | 1.0 | 1.0 | 1.2 | 1.0 | 1.2 | 1.0 | 1.2 | 0.9 |
| CCCCCCCCCC(=O)OCC(CN1CC1C)OC(=O)NC1CCC(CC2CCC(NC(=O)OC(COC(=O)CCCCCCCCC)CN3CC3C)CC2)CC1 (stereo not shown) [Ex. 23] | 1.0 | 1.1 | 1.2 | 1.2 | 1.2 | 1.1 | 1.1 | 1.1 | 1.1 | 1.2 | 1.1 | 1.2 |
| CCCCCCCCCC(=O)OCC(CN1CC1C)OC(=O)NCCCCCCn1c(=O)n(CCCCCCNC(=O)OC(COC(=O)CCCCCCCCC)CN2CC2C)c(=O)n(CCCCCCNC(=O)OC(COC(=O)CCCCCCCCC)CN2CC2C)c1=O (stereo not shown) [Ex. 24] | 1.1 | 1.1 | 1.1 | 1.2 | 1.2 | 1.0 | 1.0 | 1.1 | 1.1 | 1.2 | 1.1 | 1.0 |
